Measurements reported in patent publication US20170094972A1, “Compounds and Compositions Having Knock-Down Activity Against Insect Pests” (priority 2015, published 2017).

Columns and labels:
Assay type in all cases: in vivo
Anopheles stephensi [1] = assay: 6 well plate test, knockdown after 1 hour and mortality after 24 and 48 hours; set-up: KD: unit not given here; details: for 24 hr mort / 48 hr mort / KD: Table B4; for KD: after 1 hour
Method: The individual wells of six (6) well tissue culture plates were treated with […] of an ethanol solution containing a test compound at a defined concentration. Once the deposits were dry, ten non-blood fed adult female Anopheles stephensi (between two to five day old) were added to each well, and sustained with a 10% sucrose solution in a cotton wool plug. Assessment of the knockdown after 1 hour (Tables B1-B10), and mortality after 24 and 48 hours (Tables B1-B4) was carried out.
(§1) In case of multiple tests, the mean value is reported.

female mosquitoes = assay: Tunnel study based on WHOPES tunnel tests with Hemotek membrane feeding device
Method: Based on the “WHOPES tunnel tests” (described at http://apps.who.int/iris/bitstream/10665/80270/1/9789241505277_eng.pdf), except that live guniea pig baits were replaced with a Hemotek membrane feeding device, filled with blood and kept constant at 37° C. to mimic a human host. All tests were done under standardised laboratory controlled conditions (27° C.+2° C. under subdued light). The tunnel apparatus was a 60×30×30 cm glass case open at each end and the floor was lined with wet blue roll in order to maintain humidity. A 30×30×30 cm cage, covered in untreated netting, was placed at the release end. The test nets were cut to 25×25 cm squares and fitted into cardboard frames that allow a 20×20 cm area to be exposed. Nine holes, 1 cm in diameter, were made in the netting in the pattern specified in the WHOPES test. The frames were then fitted into the tunnel one third of the way down its length. A Hemotek device, filled with blood and kept constant at 37° C. to mimic a human host, was placed in the smaller area of the glass tunnel behind the test netting, and the end of the tunnel closed with a netting screen. A human sat at the Hemotek end of the tunnels for the duration of the test. At the start of the test (13.30-14.00), 100 female mosquitoes (non-blood fed, aged 5-8 days) were introduced into the cage. Mosquitoes are free to fly in the tunnel but have to make contact with the piece of netting and locate the holes in it before passing through to reach the bait. After 7 hours (20.30-21.00) the mosquitoes were counted in each section of the tunnel. The number of mosquitoes knocked down and blood fed were recorded. Blood-feeding inhibition was assessed by comparing the proportion of blood-fed females (alive or dead) in treated and control tests. Four tunnels were run simultaneously each day, with one control containing untreated netting included with all runs. Three replicates were carried out per treatment.
as §1

Aedes aegypti = assay: 12 well plate knockdown test; details: 1 h, read-out: Aedes aegypti 1 hour % KD; for pest or weed control at 0.2 ppm: Rate 0.2 PPM; for pest or weed control at 2 ppm: Rate 2 PPM; for pest or weed control at 20 ppm: Rate 20 PPM; for pest or weed control at 200 ppm: Rate 200 PPM
Method: (§2) The individual wells of a twelve (12) well tissue culture plates were treated with 100 μl of an ethanol solution containing a test compound at a defined concentration. Once the deposits were dry, five non-blood fed adult female Aedes aegypti or Anopheles stephensi (between two to five day old) were added to each well, and sustained with a 10% sucrose solution in a cotton wool plug. Assessment of the knockdown after 1 hour was carried out. Where multiple replicates of a treatment have been undertaken, the mean of those replicates is reported.

Anopheles stephensi [2] = assay: 12 well plate knockdown test; details: 1 h, read-out: Anopheles stephensi 1 hour % KD; for pest or weed control at 0.2 ppm: Rate 0.2 PPM; for pest or weed control at 2 ppm: Rate 2 PPM; for pest or weed control at 20 ppm: Rate 20 PPM; for pest or weed control at 200 ppm: Rate 200 PPM
Method: as §2

adult female mosquitoes = assay: Bottle assay based on CDC bottle assay; details: Table B15; rates not given
Method: Based on the “CDC bottle assay” (described at http://www.cdc.gov/malaria/resources/pdf/fsp/ir_manual/ir_cdc_bioassay_en.pdf) 1 ml of ethanol containing a test compound at a defined concentration was added to a 250 ml glass bottle and the bottles were placed on a rolling table to coat the inner surfaces as the solvent evaporated. Once dry, twenty five non-blood fed adult female mosquitoes of the appropriate species and strains (each three day old) were aspirated from the stock culture and gently blown into the exposure bottles. The lid of the bottle was replaced and the bottle placed upright out of direct sun light under standard culture conditions, nominally 28° C. and 60-80% relative humidity.
A stopwatch was started, and the assessment of the knock-down were made after 15 mins and 60 minutes. A mosquito was said to be knocked down if it was unable to stand, following the CDC definition. The bottles were replaced in an upright position when not being assessed.
After one hour the mosquitoes were carefully removed from the bottle with an aspirator and placed in a recovery cup. The mosquitoes were supplied with a 10% sucrose solution on a cotton wool bung, and stored under culture conditions. Assessments of the mortality were made after 24 hours and 48 hours (B15).
Each treatment was replicated a minimum of four times, with the mean knockdown or mortality recorded. In each study, a set of bottles was infested with a known insecticide susceptible strain of mosquitoes from the same genera as the resistant strains.

| Compound | pest or weed control at 0.2 ppm (Aedes aegypti) [%] | pest or weed control at 2 ppm (Aedes aegypti) [%] | pest or weed control at 20 ppm (Aedes aegypti) [%] | pest or weed control at 200 ppm (Aedes aegypti) [%] | pest or weed control at 0.2 ppm (Anopheles stephensi [2]) [%] | pest or weed control at 2 ppm (Anopheles stephensi [2]) [%] | pest or weed control at 20 ppm (Anopheles stephensi [2]) [%] | pest or weed control at 200 ppm (Anopheles stephensi [2]) [%] | also measured |
| --- | --- | --- | --- | --- | --- | --- | --- | --- | --- |
| CC1(C)[C@H](C(=O)O[C@H](C#N)c2cccc(Oc3ccccc3)c2)[C@@H]1C=C(Br)Br [Deltamethrin, reference compound] | – | – | – | – | – | – | – | – | knockdown after 1 hour, Alone (Anopheles stephensi [1]; Table B6, 0.03125 ppm): 20; knockdown after 1 hour, Alone (Anopheles stephensi [1]; Table B6, 0.0625 ppm): 40; knockdown after 1 hour, Alone (Anopheles stephensi [1]; Table B6, 0.125 ppm): 40; knockdown after 1 hour, Alone (Anopheles stephensi [1]; Table B6, 0.25 ppm): 100; knockdown after 1 hour, Alone (Anopheles stephensi [1]; Table B6, 0.5 ppm): 100; knockdown after 1 hour, Alone (Anopheles stephensi [1]; Table B6, 1 ppm): 100; mortality at 5 mg/m2 (female mosquitoes; 24 h, Table B13, 5 mg/m2): 13%; % 1 hour KD (female mosquitoes; Table B12, 5 mg/m2): 0%; % Blood fed (female mosquitoes; Table B12, 5 mg/m2): 0%; % Through net (female mosquitoes; Table B12, 5 mg/m2): 0.93%; % Blood fed (female mosquitoes; Table B13, 5 mg/m2): 52.77%; % Through net (female mosquitoes; Table B13, 5 mg/m2): 67.6% |
| COC(=O)N(C(=O)N1CO[C@@]2(C(=O)OC)Cc3cc(Cl)ccc3C2=N1)c1ccc(OC(F)(F)F)cc1 [Indoxacarb] | – | – | – | – | – | – | – | – | 24 hr mort (Anopheles stephensi [1]; 12.5 ppm alone): 0.0; 48 hr mort (Anopheles stephensi [1]; 12.5 ppm alone): 0.0; KD (Anopheles stephensi [1]; 12.5 ppm alone): 0.0; 24 hr mort (Anopheles stephensi [1]; 25 ppm alone): 0.0; 48 hr mort (Anopheles stephensi [1]; 25 ppm alone): 0.0; KD (Anopheles stephensi [1]; 25 ppm alone): 0.0; 24 hr mort (Anopheles stephensi [1]; 50 ppm alone): 0.0; 48 hr mort (Anopheles stephensi [1]; 50 ppm alone): 0.0; KD (Anopheles stephensi [1]; 50 ppm alone): 0.0; 24 hr mort (Anopheles stephensi [1]; 100 ppm alone): 0.0; 48 hr mort (Anopheles stephensi [1]; 100 ppm alone): 0.0; KD (Anopheles stephensi [1]; 100 ppm alone): 0.0; knockdown after 1 hour, Alone (Anopheles stephensi [1]; Table B7, 25 ppm): 0; knockdown after 1 hour, Alone (Anopheles stephensi [1]; Table B7, 50 ppm): 0; knockdown after 1 hour, Alone (Anopheles stephensi [1]; Table B7, 100 ppm): 0; knockdown after 1 hour, Alone (Anopheles stephensi [1]; Table B7, 200 ppm): 0; % 24 hour mortality (female mosquitoes; Table B14, 20 mg/m2): 7.6%; % Blood fed (female mosquitoes; Table B14, 20 mg/m2): 31.4% |
| CC(C)CC(=O)ON(C)C(=O)c1cnccc1C(F)(F)F [I.10] | 100 | 100 | 100 | 100 | 40 | 60 | 100 | 100 | – |
| NC(=S)c1cnccc1C(F)(F)F [I.22] | 100 | 100 | 100 | 100 | 40 | 60 | 60 | 100 | – |
| CCNNC(=O)c1cnccc1C(F)(F)F [I.27] | 0 | 100 | 100 | 100 | 0 | 0 | 100 | 100 | – |
| CCOC(=O)ON(C)C(=O)c1cnccc1C(F)(F)F [I.9] | 100 | 100 | 100 | 100 | 20 | 100 | 100 | 100 | – |
| CN(OC(=O)Oc1ccccc1)C(=O)c1cnccc1C(F)(F)F [I.28] | 20 | 40 | 60 | 100 | 0 | 0 | 40 | 100 | – |
| CC(=O)CNC(=O)c1cnccc1C(F)(F)F [I.23] | 40 | 100 | 100 | 100 | 0 | 20 | 40 | 100 | – |
| O=C(NC(=O)c1cnccc1C(F)(F)F)c1cccs1 [I.13] | 0 | 100 | 100 | 100 | 0 | 60 | 100 | 100 | – |
| N#CCNC(=O)c1cnccc1C(F)(F)F [Flonicamid] | – | – | – | – | – | – | – | – | 24 hour % mort (adult female mosquitoes): 0%; 48 hour % mort (adult female mosquitoes): 0%; % 1 hour KD (adult female mosquitoes): 0% |
| N/C(=N/C(=O)c1cnccc1C(F)(F)F)C1CC1 [I.19] | 0 | 100 | 100 | 100 | 40 | 60 | 100 | 100 | – |
| CS(=O)(=O)NC(=O)c1cnccc1C(F)(F)F [I.24] | 100 | 100 | 100 | 100 | 40 | 60 | 100 | 100 | – |
| O=c1nc(-c2cnccc2C(F)(F)F)os1 [I.5] | 100 | 100 | 100 | 100 | 60 | 100 | 100 | 100 | – |
| CC(NC(=O)c1cnccc1C(F)(F)F)C(N)=S (stereo not drawn) [I.26] | 0 | 100 | 100 | 100 | 0 | 0 | 100 | 100 | – |
| CN(C)CNC(=O)c1cnccc1C(F)(F)F [I.6] | 100 | 100 | 100 | 100 | 0 | 20 | 40 | 40 | – |
